Results as given in patent US20250099622A1, “COMPOSITIONS AND METHODS FOR EXPRESSING THERAPEUTICS” (priority 2022, published 2025).

Assays:
[1] = test system: NIH3T3 cells (cGMP secreted); assay: EC50 for CNP-Fc constructs, cGMP ELISA of NIH3T3 supernatant; format: cell-based; details: NIH3T3, 30 minutes, 1.8 mM IBMX, cGMP secreted by the cells; FIG. 25B
Description: EC50 for CNP-Fc described herein were measured by ELISA. 2.5E+05 NIH3T3 cells/well were plated. […] After 30 minutes, supernatant was collected for cGMP determined via ELISA. FIG. 25A illustrates a standard curve of cGMP.

[2] = background statement; cited from earlier work
[3] = target: T1, Human NPR-B (Homo sapiens, UniProt P20594); assay: Biacore SPR kinetic affinity binding to immobilized NPR-B
T1 construct: purchased R&D system
T1 sequence (P20594 23-458 limits assumed): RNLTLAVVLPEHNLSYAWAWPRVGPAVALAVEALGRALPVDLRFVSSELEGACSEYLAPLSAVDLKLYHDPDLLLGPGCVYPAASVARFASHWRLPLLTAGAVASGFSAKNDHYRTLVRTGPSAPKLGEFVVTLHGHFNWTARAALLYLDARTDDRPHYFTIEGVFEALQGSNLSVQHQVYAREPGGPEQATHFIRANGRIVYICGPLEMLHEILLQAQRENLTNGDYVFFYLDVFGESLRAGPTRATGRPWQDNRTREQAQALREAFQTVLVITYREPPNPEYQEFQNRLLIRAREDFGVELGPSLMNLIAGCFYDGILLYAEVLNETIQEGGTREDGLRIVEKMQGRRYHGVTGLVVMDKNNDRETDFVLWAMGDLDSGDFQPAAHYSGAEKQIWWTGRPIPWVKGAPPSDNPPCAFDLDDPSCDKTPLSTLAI
Description: The biological function of these purified protein was assayed for their stimulation of production of cGMP, using NPR-B receptor positive cell line, NIH/3T3 and NPR-B negative cell line HEK293 cells. The determination of cGMP was assay by ELISA using commercial CNP as standard curves. […] Surface preparation. NBR-B was immobilized at different levels in three flow cells via standard amine coupling, leaving Fc 1 unmodified to serve as a reference. All surface plasmon resonance (SPR) analysis was performed on a BIAcore 3000 system using series CM5 sensor chips. Data processing and analysis were performed using BIAevaluation software. All sensorgrams were double referenced by subtracting the response on a reference flow cell and a blank sample. Human NPR-B (R&D system) was covalently attached to a CM5 chip via amine coupling. A surface density of 6600 RU was used for measurements with natriuretic peptides Sequential injections of CNP (0.5-8 nM) were performed at a flow rate of […] (300 s for each), followed by a dissociation time of 900 s. […] Kinetic parameters were calculated assuming a simple 1:1 (Langmuir) binding. […] All SPR analysis was performed on a BIAcore 3000 system using series CM5 sensor chips. Data processing and analysis were performed using BIAevaluation software. All sensorgrams were double referenced by subtracting the response on a reference flow cell and a blank sample. Human NPR-B (R&D system) was covalently attached to a CM5 chip via amine coupling. A surface density of 3100 RU was used for measurements with natriuretic peptides Sequential injections of AMI263 (FC4-CNP) (0.125-2 nM) were performed at a flow rate of […] (300 s for each), followed by a dissociation time of 900 s. […] Kinetic parameters were calculated assuming a simple 1:1 (Langmuir) binding. […] All SPR analysis was performed on a BIAcore 3000 system using series CM5 sensor chips. Data processing and analysis were performed using BIAevaluation software. All sensorgrams were double referenced by subtracting the response on a reference flow cell and a blank sample. Human NPR-B (R&D system) was covalently attached to a CM5 chip via amine coupling. […] Kinetic parameters were calculated assuming a simple 1:1 (Langmuir) binding. […] All SPR analysis was performed on a BIAcore 3000 system using series CM5 sensor chips. Data processing and analysis were performed using BIAevaluation software. All sensorgrams were double referenced by subtracting the response on a reference flow cell and a blank sample. Human NPR-B (R&D system) was covalently attached to a CM5 chip via amine coupling. A surface density of 3100 RU was used for measurements with natriuretic peptides Sequential injections of AMI263 (FC4-CNP) (0.5-300 nM) were performed at a flow rate of […] (300 s for each), followed by a dissociation time of 900 s. […] Kinetic parameters were calculated assuming a simple 1:1 (Langmuir) binding. […] All SPR analysis was performed on a BIAcore 3000 system using series CM5 sensor chips. Data processing and analysis were performed using BIAevaluation software. All sensorgrams were double referenced by subtracting the response on a reference flow cell and a blank sample. Human NPR-B (R&D system) was covalently attached to a CM5 chip via amine coupling.

[4] = target: T2, NPR-B on NIH/3T3 cells (NPR-B receptor positive cell line) (UniProt Q6VVW5 17-1047, limits assumed); assay: cell-based or functional assay
T2 sequence (looked up): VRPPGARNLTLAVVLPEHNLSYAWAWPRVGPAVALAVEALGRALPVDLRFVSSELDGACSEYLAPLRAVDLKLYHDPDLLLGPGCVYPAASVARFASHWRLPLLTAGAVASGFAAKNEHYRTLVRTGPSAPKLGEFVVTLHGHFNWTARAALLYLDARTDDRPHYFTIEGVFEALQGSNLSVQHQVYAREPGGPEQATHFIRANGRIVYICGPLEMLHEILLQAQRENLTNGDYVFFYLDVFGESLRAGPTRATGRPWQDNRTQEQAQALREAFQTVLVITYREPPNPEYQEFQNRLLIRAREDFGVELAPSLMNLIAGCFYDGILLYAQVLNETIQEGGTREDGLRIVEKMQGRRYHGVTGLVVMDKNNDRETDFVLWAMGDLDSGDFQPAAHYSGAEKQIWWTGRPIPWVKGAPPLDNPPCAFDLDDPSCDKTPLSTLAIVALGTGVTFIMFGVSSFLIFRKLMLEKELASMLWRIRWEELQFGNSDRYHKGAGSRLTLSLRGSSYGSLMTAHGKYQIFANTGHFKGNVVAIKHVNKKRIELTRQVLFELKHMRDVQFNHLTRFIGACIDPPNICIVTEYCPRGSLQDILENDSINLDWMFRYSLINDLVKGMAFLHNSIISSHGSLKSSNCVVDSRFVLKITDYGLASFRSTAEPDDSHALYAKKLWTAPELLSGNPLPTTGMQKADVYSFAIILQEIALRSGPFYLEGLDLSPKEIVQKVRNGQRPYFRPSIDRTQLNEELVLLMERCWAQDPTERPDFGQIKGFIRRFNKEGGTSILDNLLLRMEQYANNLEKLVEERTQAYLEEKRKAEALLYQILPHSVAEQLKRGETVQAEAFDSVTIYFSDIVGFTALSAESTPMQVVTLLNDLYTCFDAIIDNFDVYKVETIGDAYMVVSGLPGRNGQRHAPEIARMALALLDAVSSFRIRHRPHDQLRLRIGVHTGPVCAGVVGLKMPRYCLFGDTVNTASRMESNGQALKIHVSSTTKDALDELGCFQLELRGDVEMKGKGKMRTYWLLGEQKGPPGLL

[5] = target: T3, Human NPR-B (R&D system) (human, UniProt P20594 23-458, limits assumed); assay: SPR (Biacore 3000), human NPR-B amine-coupled to CM5 chip, single-cycle kinetics, 1:1 Langmuir fit
T3 construct: Bought protein immobilised on the Biacore chip; also called NBR-B; natriuretic peptide receptor B
T3 sequence (looked up): T1 sequence (P20594 23-458 limits assumed)
Description: Kinetic parameters were calculated assuming a simple 1:1 (Langmuir) binding. […] All SPR analysis was performed on a BIAcore 3000 system using series CM5 sensor chips. Data processing and analysis were performed using BIAevaluation software. All sensorgrams were double referenced by subtracting the response on a reference flow cell and a blank sample. Human NPR-B (R&D system) was covalently attached to a CM5 chip via amine coupling. […] Kinetic parameters were calculated assuming a simple 1:1 (Langmuir) binding. […] All SPR analysis was performed on a BIAcore 3000 system using series CM5 sensor chips. Data processing and analysis were performed using BIAevaluation software. All sensorgrams were double referenced by subtracting the response on a reference flow cell and a blank sample. Human NPR-B (R&D system) was covalently attached to a CM5 chip via amine coupling. […] Kinetic parameters were calculated assuming a simple 1:1 (Langmuir) binding. […] All SPR analysis was performed on a BIAcore 3000 system using series CM5 sensor chips. Data processing and analysis were performed using BIAevaluation software. All sensorgrams were double referenced by subtracting the response on a reference flow cell and a blank sample. Human NPR-B (R&D system) was covalently attached to a CM5 chip via amine coupling.

[6] = target: T2, NPR-B on NIH/3T3 cells (NPR-B receptor …); assay: cell-based or functional assay; remark: listed apart in the source
[7] = target: T3, Human NPR-B (R&D system); assay: SPR (Biacore 3000), FIG. 7C, single-cycle kinetics, NPR-B at 6600 RU on CM5, CNP 0.5-8 nM; differs from Table 32
Description: Kinetic parameters were calculated assuming a simple 1:1 (Langmuir) binding. […] All SPR analysis was performed on a BIAcore 3000 system using series CM5 sensor chips. Data processing and analysis were performed using BIAevaluation software. All sensorgrams were double referenced by subtracting the response on a reference flow cell and a blank sample. Human NPR-B (R&D system) was covalently attached to a CM5 chip via amine coupling. […] Kinetic parameters were calculated assuming a simple 1:1 (Langmuir) binding. […] All SPR analysis was performed on a BIAcore 3000 system using series CM5 sensor chips. Data processing and analysis were performed using BIAevaluation software. All sensorgrams were double referenced by subtracting the response on a reference flow cell and a blank sample. Human NPR-B (R&D system) was covalently attached to a CM5 chip via amine coupling. […] Kinetic parameters were calculated assuming a simple 1:1 (Langmuir) binding. […] All SPR analysis was performed on a BIAcore 3000 system using series CM5 sensor chips.

With `CC[C@H](C)[C@@H]1NC(=O)[C@H](CCCNC(=N)N)NC(=O)[C@H](CC(=O)O)NC(=O)[C@H](CC(C)C)NC(=O)[C@H](CCCCN)NC(=O)[C@H](CC(C)C)NC(=O)CNC(=O)[C@H](Cc2ccccc2)NC(=O)[C@@H](NC(=O)CNC(=O)[C@H](CCCCN)NC(=O)[C@H](CO)NC(=O)[C@H](CC(C)C)NC(=O)CN)CSSC[C@@H](C(=O)O)NC(=O)CNC(=O)[C@H](CC(C)C)NC(=O)CNC(=O)[C@H](CO)NC(=O)[C@H](CCSC)NC(=O)[C@H](CO)NC(=O)CNC1=O` [CNP-22, reference compound] as the molecule, how does the “EC50 values (rank order)” value [1] read?
The value was “CNP-22 ≡Fc4-CNP36>Aflibercept-Fc4-CNP36>Fc1-CNP36>>Fc4-CNP22”.

What about the half-life [2] of the same molecule?
Its half-life is “only a few minutes”.

What about the ka ([3]; (FIG. 7C-7I)) of the same molecule?
Its ka is 1.31e7.

What about the kd ([3]; (FIG. 7C-7I)) of the same molecule?
The kd was 4.74E-4.

And the ka ([3]; Table 32 summary of affinity)?
Its ka is 1.37E+07.

And the kd ([3]; Table 32 summary of affinity)?
The kd was 4.74E−04.

Which results are given for GLSKGCFGLKLDRIGSMSGLGC (also called C-type natriuretic peptide) [CNP-22]?
EC50 (cGMP production, drawn table, row CNP-22) [4]: 11.8 nM; EC50 (read off the curve), cGMP production [4]: ~10 nM; Kd [5]: 0.0346 nM; EC50 (cGMP production, table 'EC50 NIH3T3 cells', row CNP-22) [6]: 11.8 nM; Kd [7]: 0.0363 nM; kon [7]: 1.31e+07 M⁻¹ s⁻¹
